Several values for one entry are separate records, joined by “and”; a condition that tells them apart may be missing. Equal entries are not always repeated.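 Five concentrations, 48 hours, 96-well plates. Here, GI50 denotes the concentration required for 50% inhibition of growth. The concentration for full growth arrest is given as TGI.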
How the values were obtained:
Experiment in all cases: growth of human tumour cells (NCI), 48 h
[1] = system: A549 NSCLC
[2] = system: HT29 colon
[3] = system: K-562 leukemia
[4] = system: NCI-H460 lung
[5] = system: NCI-H522 lung
[6] = system: SF-539 CNS
[7] = system: SK-MEL-2 melanoma
[8] = system: T-47D breast
[9] = system: TK-10 renal
[10] = system: U251 CNS

| Structure (SMILES) | GI50 [1] | TGI [1] | GI50 [2] | TGI [2] | GI50 [3] | TGI [3] | GI50 [4] | TGI [4] | GI50 [5] | TGI [5] | GI50 [6] | TGI [6] | GI50 [7] | TGI [7] | GI50 [8] | TGI [8] | GI50 [9] | TGI [9] | GI50 [10] | TGI [10] |
| --- | --- | --- | --- | --- | --- | --- | --- | --- | --- | --- | --- | --- | --- | --- | --- | --- | --- | --- | --- | --- |
| COC(=O)c1c2c(c(C)[n+]([O-])c1C)C(=O)C(NCc1cccc(OC)c1)=CC2=O | 2.35 µM | 9.36 µM | 2.51 µM | > 100 µM | 2.98 µM | > 100 µM | 1.71 µM | 8 µM | 1.92 µM | 5.02 µM | 2.02 µM | 4.15 µM | 2.55 µM | 7.49 µM | 2.23 µM | 5.47 µM | 4.55 µM | 22.7 µM | 2.65 µM | 10.6 µM |
| Cc1ccc(C2SCc3nc4ccc(C(=O)c5ccccc5)cc4n32)cc1 (stereo not drawn) | 5.99 µM | > 63.3 µM | 5.73 µM | > 100 µM | 3.74 µM | > 100 µM | 10.7 µM | > 75.6 µM | 7.93 µM | 38.2 µM | 13.4 µM | 32.5 µM | 12.1 µM | 47.3 µM | 14 µM | > 63.5 µM | 13.9 µM | 35.1 µM | 5.09 µM | > 83.7 µM |
| O=C(c1ccco1)c1c(C(F)(F)F)nc2cc(C(F)(F)F)ccc2[n+]1[O-] | 48.4 µM | > 100 µM | > 100 µM | > 100 µM | 38.3 µM | > 100 µM | 56 µM | > 100 µM | 65.8 µM | > 100 µM | 21.2 µM | 54.2 µM | 69.3 µM | > 100 µM | 18.9 µM | 49.6 µM | 28.6 µM | > 100 µM | 34.7 µM | > 100 µM |
| CCOC(=O)CNC(=O)CCCn1c(=O)c2c3ccccc3n(C)c2n2nnc(-c3ccccc3)c12 | 32.8 µM | > 50 µM | > 50 µM | > 50 µM | 4.73 µM | > 50 µM | > 50 µM | > 50 µM | 6.49 µM | 19.9 µM | 4.3 µM | 11.6 µM | 9.46 µM | 29.1 µM | 43.9 µM | > 50 µM | 8.71 µM | 20.9 µM | 4.14 µM | 14.6 µM |
| C=CC[Se]C(=O)Cc1c(C)n(C(=O)c2ccc(Cl)cc2)c2ccc(OC)cc12 | 1.62 µM | 6.18 µM | 3.39 µM | > 100 µM | 3.22 µM | 19.2 µM | 0.491 µM | 3.19 µM | 1.97 µM | 4.63 µM | 1.66 µM | 3.02 µM | 1.94 µM | 4.14 µM | 2.29 µM | 5.7 µM | 1.75 µM | 3.19 µM | 1.1 µM | 2.73 µM |
| CC[C@@H](C)[C@H]([C@H](CC(=O)N1CCC[C@@H]1[C@@H](OC)[C@H](C)C(=O)N[C@H](Cc1ccccc1)c1nccs1)OC)N(C)C(=O)[C@H](NC(=O)[C@@H](C(C)C)N(C)C)C(C)C | 0.000425 µM |  |  | 0.000849 µM | 0.000425 µM | 2.86 µM and > 4.64 µM |  | 0.00195 µM | 6.57e-05 µM | 0.000351 µM |  | 0.00161 µM | < 0.0229 µM |  |  | > 100 µM | 0.31 µM | 98.3 µM |  | 0.00143 µM |

— PubChem BioAssay (NCI)
